Holding throughout (assay): NCI tumour cell line growth inhibition, 48 h
Assay [1] deals with CAKI-1 renal.
Assay [2] has as its system A498 renal.
In assay [3] the test system is ACHN renal.
Assay [4] relates to UACC-257 melanoma.
Assay [5] deals with OVCAR-8 ovarian.
The test system of assay [6] is OVCAR-4 ovarian.
For assay [7], the system named is RPMI-8226 leukemia.
Assay [8] relates to NCI-H226 lung.
Assay [9] has as its system M14 melanoma.
In assay [10] the test system is SF-268 CNS.
Assay [11] concerns OVCAR-5 ovarian.
Assay [12] deals with KM12 colon.
The subject of assay [13] is SNB-19 CNS.
Assay [14] deals with HCT-15 colon.
The test system of assay [15] is U251 CNS.
The test system of assay [16] is SW-620 colon.
The test system of assay [17] is OVCAR-3 ovarian.
The subject of assay [18] is NCI/ADR-RES ovarian.
For assay [19], the system named is HCC-2998 colon.
The subject of assay [20] is MCF7 breast.

Each structure is given as a SMILES string.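 Protocol summary: plate cells (96-well), add compound at 5 concentrations, incubate 48 h, interpolate endpoints linearly. TGI denotes the concentration required for complete inhibition of growth.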

These results are taken from PubChem BioAssay (NCI).

As for `CC1(C)OCC([C@H]2CC23SCCCS3)O1` (some centres undefined), the TGI in [1], in assay [2], in [3], in assay [4], in assay [5] and in assay [6] was more than 100 µM throughout. Besides, the TGI in [7], in assay [8], in assay [9], in assay [10], in [11] and in [12] was more than 100 µM each time. Also, the TGI in assay [13], in [14] and in assay [15] was more than 100 µM each time.

Consider `Cc1sc(C)c2c1C(=O)CC2N` (centres undefined), for which the TGI is 28.9 µM in assay [1]; more than 100 µM in [2]; 26.3 µM in assay [16]; 32.8 µM in assay [17]; more than 100 µM in assay [18]; 31.2 µM in assay [3]. For the same molecule, the TGI in assay [4] was 33.3 µM; in assay [5], 44.9 µM; in assay [6], more than 75.6 µM; in assay [7] it was 49.2 µM; in assay [19], 35.1 µM; in [8], more than 54.9 µM. Also, the TGI in [9] is 27.6 µM; in assay [10], more than 57.3 µM; in [11], more than 100 µM; in assay [12], more than 46.4 µM; in assay [13], more than 100 µM; in assay [14], more than 58.3 µM. In assay [15], this molecule yielded a TGI of more than 100 µM.

As to `O=C(CCCl)NNC1=NCCCCN1`, the TGI in assay [16], in [17], in assay [18], in [3], in assay [4] and in assay [5] was more than 100 µM throughout. Moreover, the TGI in assay [6], in [7], in assay [20], in assay [19], in assay [8] and in [9] was more than 100 µM each time. Further, the TGI in assay [10], in assay [11], in assay [12], in [13], in assay [14] and in [15] was more than 100 µM throughout.

Regarding `CCN(CC)CCCNc1nc(=O)[nH]c(C)c1C(=O)Nc1ccc2c(c1)c1ccccc1n2CC`, the TGI in [1], in assay [16], in assay [17], in assay [18], in assay [3] and in assay [4] was more than 100 µM throughout. The TGI in assay [5], in [6], in assay [7], in assay [20], in [19] and in assay [8] was more than 100 µM throughout. Also, the TGI in assay [9], in [11], in assay [12], in assay [13], in assay [14] and in assay [15] was more than 100 µM in each case.

In the case of `SCc1ccc(CS)s1`, the TGI in assay [16], in [17], in [18], in [4], in assay [5] and in [6] was more than 100 µM each time. Further, the TGI in [20], in assay [19], in assay [9], in assay [10], in assay [11] and in assay [12] was more than 100 µM throughout. Besides, the TGI in assay [13], in [14] and in [15] was more than 100 µM throughout.

In the case of `O=c1oc2ccc(Cl)cc2cc1-c1cn2ccccc2n1`, the TGI is 45.9 µM in assay [1]; more than 100 µM in [16]; more than 100 µM in [17]; more than 77.4 µM in assay [18]; 8.54 µM in [3]; more than 100 µM in assay [4]. Moreover, the TGI is more than 100 µM in assay [5]; 29.8 µM in assay [6]; more than 100 µM in [7]; 99.2 µM in assay [20]; more than 100 µM in assay [19]; more than 94.8 µM in assay [8]. Also, the TGI was more than 100 µM in assay [9]; 99.3 µM in assay [10]; more than 100 µM in assay [11]; more than 100 µM in assay [12]; more than 21 µM in assay [13]; more than 100 µM in assay [14]. In [15], this molecule showed a TGI of more than 40.2 µM.

For the molecule `N#Cc1nc(-c2ccccn2)oc1N`, the TGI in assay [1], in assay [2], in [16], in [17], in assay [3] and in [4] was more than 100 µM throughout. For the same molecule, the TGI in assay [6], in assay [7], in assay [20], in assay [19], in assay [8] and in assay [10] was more than 100 µM throughout. The TGI in [11], in [12], in [13], in assay [14] and in [15] was more than 100 µM each time.

Take `COC(=O)c1ccccc1/C=C1\Cc2c(C)cc(C)cc2C1=O`: the TGI in assay [1], in assay [2], in [16], in assay [17], in assay [3] and in assay [4] was more than 100 µM each time. For the same molecule, the TGI in assay [5], in assay [6], in assay [7], in [20], in assay [19] and in assay [8] was more than 100 µM throughout. Moreover, the TGI in assay [9], in assay [10], in [12], in [13], in [14] and in [15] was more than 100 µM each time.
